# Reference: PMC7112239, “Latency reversal agents modulate HIV antigen processing and presentation to CD8 T cells” (PLoS Pathogens, 2020)
# Where no end group is shown, it is not given here.
# Tests used:
# [1] = system: CD4 T cell extracts (antigen processing machinery); assay: In vitro degradation of HIV-1 Gag p24-161-24m in extracts of LRA-treated CD4 T cells, mass spectrometry; type: biochemical, human
# Procedure: (§1) Romidepsin, Bryostatin, Disulfiram (Sigma), Ingenol-3-angelate (Santa Cruz Biotechnologies), Panobinostat (Selleckchem) were dissolved in DMSO (Fisher Scientific) to make stock solutions. Fresh aliquots were used for each experiment. The final concentrations for each LRA in cell culture were as follows: Panobinostat (30 nM), Romidepsin (40 nM), Disulfiram (500 nM), Bryostatin (10 nM), Ingenol-3-angelate (50 nM). Maximum in vitro stimulation was achieved by addition of anti-CD3/CD28 magnetic beads (Fisher Scientific) at a ratio of 1:1 bead to T cell as in [37]. For combination treatment, both drugs were added at the same time.
# (§2) 2 nmol of pure peptide (MGH peptide core facility or Biosynthesis, Texas) was degraded with 15 ug of CD4 T cell extracts at 37°C in pH7.4 degradation buffer as in [37, 40]. Aliquots were taken at various time points and the reaction was stopped by addition of 5% (v/v) of Formic acid (Thermo Scientific) and the degradation products were purified by trichloroacetic acid (Sigma) precipitation (final concentration 5% (v/v)) and identified by in-house mass spectrometry as previously described. Briefly, equal amounts of the purified degradation products were injected into a NanoLC Ultra-HPLC (Eksigent) for salt removal and separation, then online nanosprayed into an LTQ Orbitrap Discovery mass spectrometer (Thermo) for identification. Peptides were separated in a NanoLC column (ChromXP C18, 3 um 120Å; Eksigent) over a gradient of 2–60% buffer B (buffer A: 0.1% (v/v) formic acid in MS-grade water (Fisher Scientific)); buffer B: 0.1% (v/v) formic acid in MS-grade acetonitrile (Fisher Scientific) in 95 min with a conserved flow rate of 250 nl/min. Mass spectra were recorded in the 370–2000 Daltons range. In the tandem mass spectrometry mode, the eight most intense peaks were selected with a window of 1 Dalton and fragmented using helium as collision gas and a voltage of 35 V. Peaks in the mass spectra were searched against the source peptide databases with Proteome Discoverer (version 1.3; Thermo) and quantitatively analyzed. For a given peptide, the integrated area under the peak is proportional to the relative abundance of the peptide in the sample. Each sample was run on the mass spectrometer at least twice.
# [2] = system: HIV-infected HLA-B57+ CD4 T cells; assay: Endogenous processing and presentation assay: CD107a degranulation of epitope-specific CD8 T cells and peptide equivalent; type: cell-based, human; settings: for score of peptide presentation efficiency (peptide equivalent over HIV infection rate) at 24 hours / equivalent peptide presented (TW10, ISW9, KF11) at 24 hpi: 24 hpi; for score of peptide presentation efficiency (peptide equivalent over HIV infection rate) at 24 hours: all 3 epitopes; for equivalent peptide presented (TW10, ISW9, KF11) at 24 hpi: radar plots
# [3] = system: CD4 T cell extracts (antigen processing machinery); assay: In vitro degradation of HIV-1 Gag p24-10-35m in extracts of LRA-treated CD4 T cells, mass spectrometry; type: biochemical, human; settings: for HLA-B57 KF11 epitope production: LRA-treated extracts over matched DMSO, n = 6–10 donors
# Procedure: as §1, §2
# [4] = system: post-proteasomal aminopeptidases; assay: Aminopeptidase hydrolytic activity in live CD4 T cells (fluorogenic H-Leu-AMC); type: cell-based, human; settings: live primary CD4 T cells of healthy donors, 48 h treatment, versus DMSO; Bryostatin 10 nM, Panobinostat 30 nM; 50 μM H-Leu-AMC, 37°C; n = 8
# Procedure: as §1
# The proteasome hydrolytic activities caspase-like (50 μM Z-LLE-AMC; EMD Millipore), tryptic (50 μM Boc-LRR-AMC; Bachem), chymotryptic (50 μM Suc-LLVY-AMC; Bachem), post-proteasomal aminopeptidases (50 μM H-Leu-AMC; Bachem) were measured in 25x10^3 live CD4 T cells at given time points after drug treatment with peptidase-specific fluorogenic substrates as in [37, 40]. […] The rate of fluorescence emission, which is proportional to the proteolytic activity, was measured every 600 s at 37°C in a Victor-3 Plate Reader (Perkin Elmer), as in [37].
# proteasome = settings: cited from earlier work
# Text: Most LRAs selected so far to relieve transcriptional blocks act on signaling pathways and histone acetylation but are not specific to HIV LTR promoters or targeted to the reservoirs, thus their effect should be considered globally on genes and cellular machineries of cell populations.
# primary CD4 T cells = assay: CD25 and CD69 surface activation markers by flow cytometry; type: cell-based, human; settings: 6, 24 and 48 h post treatment
# Procedure: as §1
# Untreated or LRA-treated CD4 T cells were stained with CD4-BV605, CD3-Pacific Blue (BD Biosciences) and HLA-ABC-AlexaFluor700 (Biolegend) to assess purity (95–99%) and CD38-FITC, CD69-PE, CD25-PerCpCy5.5 and HLA-DR-APC (BD Biosciences) to measure surface activation marker levels. Cellular activation levels were calculated by first gating on the double negative population of CD25 and CD69 of the non-treated sample on live, CD4- and CD3-positive cells and applying the same gates to the LRA-treated and CD3/CD28-stimulated samples as done in [37]. A similar gating strategy was applied to determine the proportion of CD38- and HLA-DR-positive CD4 T cells.
# [5] = cited from earlier work
# Text: We similarly assessed the processing of another HIV fragment, p24-161-24mer, after LRAs or aCD3/CD28 treatments (Fig 3A).
# [6] = over matched DMSO, n = 8–11 healthy donors
# [7] = extracts of CD4 T cells treated 48 h, 120-minute degradation, representative experiment
compound,measurement,setting,value
CCC/C=C/C=C/C(=O)O[C@H]1/C(=C/C(=O)OC)C[C@H]2C[C@H]([C@@H](C)O)OC(=O)C[C@H](O)C[C@@H]3C[C@H](OC(C)=O)C(C)(C)[C@](O)(C[C@@H]4C/C(=C/C(=O)OC)C[C@H](/C=C/C(C)(C)[C@]1(O)O2)O4)O3 [Bryostatin],increase of production of 8-11aa peptides in p24-161-24m,"[1]; first half of the sequence, representative experiment",2- to 5 fold
same,ratio of 8-11aa peptides of p24-161-24m produced in treated over DMSO treated cells,[1]; n = 4–10 donors,significantly increased
same,"number of significantly changed N- or C-terminal cleavage sites, p24-161-24mer",[1]; [6],6
same,score of peptide presentation efficiency (peptide equivalent over HIV infection rate) at 24 hours,[2],lowest
same,"equivalent peptide presented (TW10, ISW9, KF11) at 24 hpi",[2],among the lowest
same,efficiency of peptide presentation overtime,[2]; 24 to 72 hpi,increased
same,"amount of fragments starting at V2, V15, V17 of p24-10-35m",[3]; [7],reduced
same,difference in amount of 8-11aa peptides of p24-10-35m versus DMSO- or Panobinostat-treated extracts,"[3]; second half of the sequence, representative experiment",up to 5 times
same,"aminopeptidase hydrolytic activities, average fold change",[4],1.6 fold
same,proteasome activities in fibroblasts,proteasome,can enhance proteasome activities
CCN(CC)C(=S)SSC(=S)N(CC)CC [Disulfiram],proportion of CD25+ and/or CD69+ primary CD4 T cells compared to DMSO-treated cells,primary CD4 T cells,Neither HDACi nor disulfiram changed the proportion
same,HLA-B57 KF11 epitope production,[3],decreased
same,QW11 epitope production,"[3]; treated extracts over matched DMSO, n = 2–6 donors",increased
same,proteasome activities in cell lines,proteasome; effect on NF-κB,inhibited proteasome activities
CC[C@H](C)[C@H](NC(=O)[C@@H](NC(=O)[C@H](CCC(=O)O)NC(=O)[C@@H]1CCCN1C(=O)[C@H](CO)NC(=O)[C@H](Cc1ccccc1)NC(=O)[C@H](C)NC(=O)[C@@H](N)CCCCN)C(C)C)C(=O)N1CCC[C@H]1C(=O)N[C@@H](CCSC)C(=O)N[C@@H](Cc1ccccc1)C(=O)O [KF11],degradability in the cytosol of primary cells,[5],less degradable
Cc1[nH]c2ccccc2c1CCNCc1ccc(/C=C/C(=O)NO)cc1 [Panobinostat],peptide production at each aa of p24-161-24mer,[1]; [6],decreased peptide production at most aa
same,production of 8-11aa peptides throughout the p24-161-24m sequence,[1]; representative experiment,reduced
same,KF11 and ISW9 peptide equivalent displayed by HIV-infected CD4 T cells,[2],reduction of peptide presentation
same,score of peptide presentation efficiency (peptide equivalent over HIV infection rate) at 24 hours,[2],second highest
same,"equivalent peptide presented (TW10, ISW9, KF11) at 24 hpi",[2],highest KF11 and ISW9 peptide presentations
same,HLA-B57 KF11 epitope production,[3],unchanged
same,"amount of fragments starting at V2, V15, V17 of p24-10-35m",[3]; [7],increased
same,reduction of fragments starting at H3 or N12 of p24-10-35m,"[3]; extracts of CD4 T cells treated 48 h, 120-minute degradation, representative experiment, versus DMSO",10 fold
same,HLA-B57 ISW9 epitope production,"[3]; treated extracts over matched DMSO, n = 4–9 donors",increased
same,"aminopeptidase hydrolytic activities, average fold change",[4],0.78 fold
ISPRTLNAW [ISW9],degradability in the cytosol of primary cells,[5],among the most degradable
